Source: a melting point compilation (Tetko et al.)

melting point | SMILES
146 to 148 °C | CC(Cl)C(=O)Nc1cccc2ccccc12 (configuration not stated)
195 to 197 °C | O=C(NCc1cccs1)c1ccc(-n2ccnc2S)cc1
229 to 231 °C | CC(C)(C)OC(=O)NCC1CCCCC12NC(=O)NC2=O (configuration not stated)
62 to 64 °C | CCOC(=O)c1cc(Br)c(OC)c(S(=O)(=O)Cl)c1
255 to 257 °C | Cc1c(C(=O)O)oc2ccc(Cl)cc12
46 to 48 °C | Cc1c(N)cnn1CCC(C)C
218 to 220 °C | Oc1cccc(-c2cn[nH]c2)c1
90 to 92 °C | COCCn1c(N)cc(=O)[nH]c1=O
66 to 68 °C | Cc1nc(CCCC(=O)O)cs1
118 to 120 °C | O=C(O)c1cccc(=O)n1CCOc1ccccc1Cl
158 to 160 °C | CC(C)Cn1cnc2c1c(=O)[nH]c(=O)n2CC(C)C
115 to 117 °C | Nc1ccc(Cl)c(C(=O)Nc2ccccc2)c1
79 to 81 °C | Brc1nnc(Cc2ccccc2)s1
228 to 230 °C | O=C(O)c1ccc(CNC(=O)C2CCCC2)cc1
74 to 76 °C | COc1cc(C)c(C(C)=O)cc1C
150 to 152 °C | CC(C)(C)OC(=O)N1CCCCCC1C(N)=NO (configuration not stated)
65 to 67 °C | CC(C)(CO)N1C(=O)c2ccccc2C1=O
205 to 207 °C | CC(C)(C)c1nccc(=O)[nH]1
100 to 102 °C | CCN(CC)S(=O)(=O)c1ccc(OC)c(NC(=O)CCl)c1
88 to 90 °C | CC(=O)CC(=O)c1cnn(C)c1
50 to 52 °C | O=C(Nc1cccc(F)c1)OCC(F)(F)F
243 to 245 °C | COc1ccccc1-c1nnc(S)o1
37 to 39 °C | O=Cc1c(Cl)cccc1OC(F)F

melting point | SMILES
115 to 117 °C | O=S(=O)(Cl)c1ccc(Cl)c2c(Cl)cccc12
96 to 98 °C | Nc1cc(C2CC2)nc2ccc(Cl)cc12
56 to 58 °C | CC(=O)N(c1nc(CCl)cs1)C1CC1
259 to 261 °C | CCCCCCC(NC)C(=O)O (configuration not stated)
129 to 131 °C | COC(=O)c1cc(O)c(C)c(F)c1
209 to 211 °C | CC(O)CCNc1cc2nc[nH]c(=O)c2cc1N (configuration not stated)
127 to 129 °C | Cc1cccc(C(=O)O)c1-n1cccc1
109 to 112 °C | Nc1ccccc1C(=O)Nc1ccc(F)cc1
177 to 179 °C | COc1ccc(OCc2ccccn2)c(/C=C/C(=O)O)c1
126 to 128 °C | O=C(O)CCC(=O)c1ccc(S(=O)(=O)Cl)cc1
159 to 161 °C | CC(C)(NC(=O)NCc1cccc(Br)c1)C(=O)O
165 to 167 °C | Sc1nnc(N2CCCCC2)s1
173 to 175 °C | CCn1c(SCC(=O)O)nnc1-c1ccco1
147 to 149 °C | CCN1N=C(C(=O)O)CCC1=O
239 to 241 °C | CC(C)(C)CNC(=O)c1ccc(C(=O)O)cn1
77 to 79 °C | CC(=O)c1cccc(OCc2cn3ccccc3n2)c1
117 to 119 °C | COc1ccc(SC)c(OC)c1C(=O)O
187 to 189 °C | Nc1c(I)cc(I)cc1I
49 to 51 °C | CNC(c1ccc(Cl)cc1)c1ccc(Cl)cc1
154 to 156 °C | ON=Cc1ccc(OCc2ccccn2)cc1
123 to 125 °C | CC(=O)C12CC3CC(C1)CC(C(=O)O)(C3)C2
99 to 101 °C | O=C(CN1CCNCC1)NC1CCCCC1
119 to 122 °C | CC(C)(C)CCN1CCNCC1

melting point | SMILES
189 to 193 °C | Nc1nc(-c2cccnc2)cs1
187 to 189 °C | CNS(=O)(=O)c1ccc(N)cc1OC
169 to 171 °C | CC(C)c1nn(-c2ccccc2)cc1C(=O)O
183 to 185 °C | Sc1nnnc2ccccc12
124 to 126 °C | N#Cc1ccc(Oc2cccc([N+](=O)[O-])c2)cc1
166 to 168 °C | CCCCC(NC(N)=O)C(=O)O (configuration not stated)
169 to 171 °C | O=[N+]([O-])c1ccc(S)nc1
87 to 89 °C | CC(=O)NCCc1ccc(S(=O)(=O)Cl)s1
235 to 237 °C | Nc1ccc(N2CCOCC2)cc1C(=O)O
159 to 161 °C | CNc1ncc(C(=O)O)s1
59 to 61 °C | CS(=O)(=O)CCCI
224 to 226 °C | CN(C)c1ccc(C=C(C#N)C(=O)O)cc1
152 to 154 °C | CCOc1ccc(S(N)(=O)=O)cc1OCC
110 to 112 °C | Cc1nn(C)c2c1NCCS2(=O)=O
89 to 91 °C | Nc1ccc2c(c1)COC2
121 to 123 °C | CCOC(=O)c1c(N)sc2c1CCNC2
134 to 136 °C | O=C(O)c1cccn1Cc1cccs1
118 to 120 °C | OCc1sc(N2CCOCC2)nc1-c1ccccc1
62 to 64 °C | COc1ccc(F)cc1[N+](=O)[O-]
167 to 169 °C | O=C(O)C1CCCN(C(=O)c2ccccn2)C1 (configuration not stated)
117 to 119 °C | Cc1cccc(C(N)=O)n1
154 to 156 °C | CCOc1nnc(-c2ccccc2)n1-c1ccccc1
95 to 97 °C | Cc1ccccc1OCc1csc(N)n1

melting point | SMILES
46 to 48 °C | Nc1ccc(CC(F)(F)F)cc1
70 to 72 °C | NCC1CCN(C(=O)c2ccccc2)CC1
44 to 46 °C | Cc1nc(CO)c(C)s1
94 to 96 °C | CSc1ccc(OC(C)C(=O)O)cc1 (configuration not stated)
119 to 121 °C | CC1CN(C(=O)c2ccccc2N)CC(C)O1 (configuration not stated)
103 to 105 °C | O=C(NCCc1ccccc1)n1ccnc1
130 to 139 °C | COCc1c(C(=O)O)sc2cccc(F)c12
79 to 81 °C | CC(=O)NCc1ccc(C(=O)C(C)Cl)s1 (configuration not stated)
90 to 92 °C | Cc1ccc(OCCCC(=O)O)cc1C
87 to 89 °C | O=C(c1ccc(Cl)cc1)c1cccnc1
217 to 219 °C | CC(=O)c1ccc2c(c1)CC(=O)N2
185 to 187 °C | NS(=O)(=O)c1ccc(Cl)c(S(=O)(=O)Cl)c1
145 to 147 °C | COc1cc(N)ccc1S(=O)(=O)N1CCCC1
288 to 290 °C | Cc1sc2nc(S)n(C)c(=O)c2c1C
121 to 123 °C | Cc1ccc(CC(=O)Nc2cccc(C(C)O)c2)cc1 (configuration not stated)
288 to 290 °C | O=C(Nc1ccc(O)c(C(=O)O)c1)c1cc(Cl)cc(Cl)c1
110 to 112 °C | Cc1ccc(-c2csc(NCCCC(=O)O)n2)s1
349 to 351 °C | O=c1[nH]c2ccccc2n2cncc12
70 to 72 °C | CS(=O)(=O)NCc1cccc(CN)c1
87 to 89 °C | CC1CCCC(=O)N1 (configuration not stated)
157 to 159 °C | Cc1nn(CC(F)(F)F)c(C)c1CC(=O)O
80 to 88 °C | O=S(=O)(Cl)/C=C/c1ccccc1
138 to 140 °C | O=S(=O)(Cl)c1ccc2nc(Cl)ccc2c1

melting point | SMILES
76 to 78 °C | O=C(O)C1CCCSC1 (configuration not stated)
118 to 120 °C | O=Cc1cc2ccccc2nc1N1CCCCC1
119 to 121 °C | O=[N+]([O-])c1cc(S(=O)(=O)NCCN2CCOCC2)ccc1Cl
76 to 78 °C | O=Cc1csc(COc2ccccc2)n1
219 to 221 °C | Nc1nnc(-c2cccc(Br)c2)[nH]1
123 to 125 °C | CCSc1ccc(C(=O)O)cn1
189 to 191 °C | COc1cc(C(=O)O)c(F)cc1N
103 to 105 °C | O=C(Nc1ccc2c(c1)OCCO2)OCC(F)(F)F
134 to 136 °C | CCOc1ccc(S(=O)(=O)N2CCCCC2)cc1N
123 to 125 °C | O=[N+]([O-])c1cc(Br)ccc1S
130 to 132 °C | CC(Cl)C(=O)Nc1ccc(C(F)(F)F)cc1 (configuration not stated)
51 to 53 °C | N#CCOc1ccc(N)cc1
190 to 192 °C | CCOc1ccc(C2(C)NC(=O)NC2=O)cc1 (configuration not stated)
54 to 56 °C | CS(=O)(=O)N1CCCC(Cl)C1 (configuration not stated)
31 to 33 °C | CCOc1cc(F)ccc1[N+](=O)[O-]
84 to 86 °C | O=S1(=O)CCC(NC2CCNCC2)C1 (configuration not stated)
239 to 241 °C | NC(=O)CNS(=O)(=O)c1c[nH]c(C(=O)O)c1
130 to 132 °C | Cc1ccc(SC2CCCC2)c(C(=O)O)c1
207 to 209 °C | CS(=O)(=O)c1ccc(N)c(Br)c1
124 to 126 °C | O=C(O)CCCN1C(=O)CSC1=S
70 to 72 °C | CN(C)C(=O)CC(=O)O
126 to 128 °C | CCc1onc(C)c1C(=O)O
147 to 149 °C | Nc1ccc(Cl)c(CO)n1

melting point | SMILES
144 to 146 °C | CC(=O)Nc1ccccc1CC(=O)O
122 to 124 °C | CC(C)(C)OC(=O)Nc1ccc(F)c(N)c1
189 to 191 °C | Cc1c(Cl)cccc1Nc1nnc(S)s1
170 to 172 °C | CC1(C2CC2)NC(=O)N(CC(=O)O)C1=O (configuration not stated)
90 to 92 °C | OCCc1c[nH]nc1C(F)(F)F
148 to 150 °C | CSCC[C@H](N)C(=O)NO
213 to 215 °C | O=C(O)/C=C/c1cc2ccccc2o1
164 to 166 °C | O=C(O)c1cc2cc(Br)sc2[nH]1
91 to 93 °C | COc1ccc(C=NO)cc1OC
158 to 160 °C | NNC(=O)C(=O)NCc1ccco1
130 to 132 °C | CS(=O)(=O)NCC1CCCNC1 (configuration not stated)
99 to 101 °C | CCNC1=NCC(c2ccccc2)S1 (configuration not stated)
183 to 185 °C | N#Cc1cccc(S(=O)(=O)n2ccc(N)n2)c1
51 to 53 °C | CCCCc1nc(-c2cccc(O)c2)no1
146 to 148 °C | O=C1CCS(=O)(=O)c2ccc(Br)cc21
90 to 92 °C | Cc1ccc(NC(=O)CO)c(Cl)c1
187 to 189 °C | O=C(O)c1cc(-c2cc(F)ccc2F)no1
246 to 248 °C | N#Cc1ccc(Oc2ccc(C(=O)O)cc2)nc1
120 to 122 °C | O=C(CCl)N1CCN(S(=O)(=O)c2ccc3c(c2)CCC3)CC1
203 to 205 °C | O=c1nc(S)[nH]nc1-c1cc(Cl)sc1Cl
92 to 95 °C | O=C(CCl)NCc1ccc(F)cc1
74 to 76 °C | CN1CCN(C(=O)c2ccccc2N)CC1
159 to 161 °C | Cn1ncc(-c2nc(C3CC3)no2)c1N

SMILES | melting point
NCC(O)c1ccc(F)cc1 (configuration not stated) | 65 to 67 °C
CC(C)CNCC(O)c1ccc(F)cc1 (configuration not stated) | 56 to 58 °C
CCc1c(O)nc(S)n(-c2ccccc2OC)c1=O | 160 to 162 °C
O=C1OC(O)C(Br)=C1Br (configuration not stated) | 122 to 124 °C
c1cnc(N2CCNCC2)cn1 | 48 to 50 °C
CCC1C(=O)NC(=S)N(c2ccc(Cl)cc2)C1=O (configuration not stated) | 148 to 150 °C
NC(=O)CN1CC(O)CC1=O (configuration not stated) | 133 to 135 °C
CCOc1ccccc1NC1=NCCS1 | 55 to 57 °C
O=C(Nc1nccs1)C(Cl)(Cl)Cl | 203 to 205 °C
